Data taken from ChEMBL document CHEMBL4043226, “Design, synthesis and biological evaluation of benzamide and phenyltetrazole derivatives with amide and urea linkers as BCRP inhibitors” (Bioorg Med Chem Lett, 2017).

Experiments:
[1] = Resistance index, ratio of mitoxantrone IC50 for human H460/MX20 cells to mitoxantrone IC50 for human H460 cells at 10 uM (reference value: 28.66)
[2] = Resistance index, ratio of mitoxantrone IC50 for human H460/MX20 cells to mitoxantrone IC50 for human H460 cells at 3 uM (reference value: 28.66)
[3] = Resistance index, ratio of mitoxantrone IC50 for human H460/MX20 cells to mitoxantrone IC50 for human H460 cells at 1 uM (reference value: 28.66)
[4] = Cytotoxicity against human NCI-H460/MX20 cells after 72 hrs by MTT assay; type: cell-based; conditions: NCI-H460/MX20, 72 h
[5] = tested on: NCI-H460; assay: Cytotoxicity against human H460 cells after 72 hrs by MTT assay; type: cell-based; conditions: NCI-H460, 72 h
[6] = Inhibition of ABCG2 in human H460/MX20 cells assessed as potentiation of mitoxantrone induced antiproliferative activity by measuring mitoxantrone IC50 at 10 uM preincubated for 2 hrs followed by mitoxantrone addition measured after 72 hrs by MTT assay (reference value: 6.161 +/- 0.172 microM)
[7] = Inhibition of ABCG2 in human H460/MX20 cells assessed as potentiation of mitoxantrone induced antiproliferative activity by measuring mitoxantrone IC50 at 3 uM preincubated for 2 hrs followed by mitoxantrone addition measured after 72 hrs by MTT assay (reference value: 6.161 +/- 0.172 microM)
[8] = Inhibition of ABCG2 in human H460/MX20 cells assessed as potentiation of mitoxantrone induced antiproliferative activity by measuring mitoxantrone IC50 at 1 uM preincubated for 2 hrs followed by mitoxantrone addition measured after 72 hrs by MTT assay (reference value: 6.161 +/- 0.172 microM)

COc1cccc(-n2nnc(-c3ccccc3NC(=O)c3ccc([N+](=O)[O-])cc3)n2)c1
Ratio IC50 [1]: 1.43
Ratio IC50 [2]: 1.8
Ratio IC50 [3]: 2.72
IC50 [4]: > 100 µM
IC50 [5]: > 100 µM
IC50 [6]: 0.307 µM

COc1ccc(-n2nnc(-c3ccccc3NC(=O)c3ccc([N+](=O)[O-])cc3)n2)cc1
Ratio IC50 [1]: 1.76
Ratio IC50 [2]: 2.49
Ratio IC50 [3]: 2.73
IC50 [4]: 27.4 µM
IC50 [5]: 24.7 µM

COc1ccc(C(=O)Nc2ccccc2-c2nnn(-c3ccc(OC)cc3)n2)cc1
Ratio IC50 [1]: 2.29
Ratio IC50 [2]: 2.35
Ratio IC50 [3]: 3.47
IC50 [4]: > 100 µM
IC50 [5]: > 100 µM

COc1ccc(-n2nnc(-c3ccccc3NC(=O)Nc3ccc([N+](=O)[O-])cc3)n2)cc1
Ratio IC50 [1]: 1.54
Ratio IC50 [2]: 2.52
Ratio IC50 [3]: 3.34
IC50 [4]: 28.5 µM
IC50 [5]: 21.7 µM

O=C(Nc1ccc([N+](=O)[O-])cc1)Nc1ccccc1C(=O)Nc1ccc(C(F)(F)F)cc1
Ratio IC50 [1]: 2.12
Ratio IC50 [2]: 2.81
Ratio IC50 [3]: 3.31
IC50 [4]: > 100 µM
IC50 [5]: > 100 µM

COc1cccc(-n2nnc(-c3ccccc3NC(=O)c3ccc(N=[N+]=[N-])cc3)n2)c1
Ratio IC50 [1]: 5.89
Ratio IC50 [2]: 6.98
Ratio IC50 [3]: 7.51
IC50 [4]: 21.5 µM
IC50 [5]: 20.3 µM

COc1cccc(-n2nnc(-c3ccccc3NC(=O)c3ccccc3[N+](=O)[O-])n2)c1
Ratio IC50 [1]: 5.12
Ratio IC50 [2]: 6.14
Ratio IC50 [3]: 8.74
IC50 [4]: 44.7 µM
IC50 [5]: 38.9 µM
IC50 [7]: 1.32 µM

COc1cccc(-n2nnc(-c3ccccc3NC(=O)Nc3ccccc3[N+](=O)[O-])n2)c1
Ratio IC50 [1]: 4.1
Ratio IC50 [2]: 4.55
Ratio IC50 [3]: 5.45
IC50 [4]: > 100 µM
IC50 [5]: > 100 µM
IC50 [8]: 1.172 µM

CCCc1ccc(NC(=O)c2ccccc2NC(=O)c2cccc([N+](=O)[O-])c2)cc1
Ratio IC50 [1]: 2.38
Ratio IC50 [2]: 3.38
Ratio IC50 [3]: 3.65
IC50 [4]: > 100 µM
IC50 [5]: > 100 µM
IC50 [7]: 0.727 µM
IC50 [8]: 0.785 µM
IC50 [6]: 0.512 µM

COc1ccc(NC(=O)Nc2ccccc2-c2nnn(-c3ccc(OC)cc3)n2)cc1
Ratio IC50 [1]: 1.56
Ratio IC50 [2]: 1.78
Ratio IC50 [3]: 2.06
IC50 [4]: 57.4 µM
IC50 [5]: 52.5 µM
IC50 [7]: 0.382 µM
IC50 [6]: 0.355 µM

COc1cccc(-n2nnc(-c3ccccc3NC(=O)Nc3ccc(N=C=S)cc3)n2)c1
Ratio IC50 [1]: 2.56
Ratio IC50 [2]: 3.1
Ratio IC50 [3]: 7.05
IC50 [4]: > 100 µM
IC50 [5]: > 100 µM
IC50 [8]: 1.515 µM
IC50 [6]: 0.55 µM

CCCc1ccc(NC(=O)c2ccccc2NC(=O)c2ccccc2[N+](=O)[O-])cc1
Ratio IC50 [1]: 7.7
Ratio IC50 [2]: 9.36
Ratio IC50 [3]: 11.75
IC50 [4]: > 100 µM
IC50 [5]: > 100 µM

COc1cccc(-n2nnc(-c3ccccc3NC(=O)c3ccc(NC(C)=O)cc3)n2)c1
Ratio IC50 [1]: 5.58
Ratio IC50 [2]: 6.16
Ratio IC50 [3]: 6.34
IC50 [4]: > 100 µM
IC50 [5]: > 100 µM

COc1cccc(-n2nnc(-c3ccccc3NC(=O)Nc3ccc(N)cc3)n2)c1
Ratio IC50 [1]: 1.76
Ratio IC50 [2]: 2.66
Ratio IC50 [3]: 3.9
IC50 [4]: > 100 µM
IC50 [5]: > 100 µM
IC50 [7]: 0.571 µM

CCCc1ccc(NC(=O)c2ccccc2NC(=O)c2ccc(OC)cc2)cc1
Ratio IC50 [1]: 7.97
Ratio IC50 [2]: 10
Ratio IC50 [3]: 13.1
IC50 [4]: > 100 µM
IC50 [5]: > 100 µM
IC50 [7]: 2.012 µM
IC50 [8]: 2.526 µM

CCCc1ccc(NC(=O)c2ccccc2NC(=O)Nc2ccccc2[N+](=O)[O-])cc1
Ratio IC50 [1]: 5.21
Ratio IC50 [2]: 11.92
Ratio IC50 [3]: 17.03
IC50 [4]: > 100 µM
IC50 [5]: > 100 µM

COc1cccc(-n2nnc(-c3ccccc3NC(=O)c3ccc(N=C=S)cc3)n2)c1
Ratio IC50 [1]: 4.43
Ratio IC50 [2]: 4.88
Ratio IC50 [3]: 5.68
IC50 [4]: 59 µM
IC50 [5]: 44.7 µM
IC50 [8]: 1.221 µM

COc1cccc(-n2nnc(-c3ccccc3NC(=O)c3ccc(NC(=O)CBr)cc3)n2)c1
Ratio IC50 [1]: 1.32
Ratio IC50 [2]: 2.07
Ratio IC50 [3]: 2.81
IC50 [4]: > 100 µM
IC50 [5]: > 100 µM

COc1cccc(-n2nnc(-c3ccccc3NC(=O)Nc3ccc(NC(=O)CBr)cc3)n2)c1
Ratio IC50 [1]: 2.2
Ratio IC50 [2]: 2.71
Ratio IC50 [3]: 3.71
IC50 [4]: > 100 µM
IC50 [5]: > 100 µM

CCCc1ccc(NC(=O)c2ccccc2NC(=O)Nc2ccc(OC)cc2)cc1
Ratio IC50 [1]: 4.58
Ratio IC50 [2]: 10.12
Ratio IC50 [3]: 15.68
IC50 [4]: > 100 µM
IC50 [5]: > 100 µM

CCCc1ccc(C(=O)Nc2ccccc2-c2nnn(-c3cccc(OC)c3)n2)cc1
Ratio IC50 [1]: 0.61
Ratio IC50 [2]: 0.96
Ratio IC50 [3]: 1.65
IC50 [4]: 40.6 µM
IC50 [5]: 27 µM
IC50 [7]: 0.207 µM

COc1cccc(-n2nnc(-c3ccccc3NC(=O)Nc3ccc(NC(C)=O)cc3)n2)c1
Ratio IC50 [1]: 1.51
Ratio IC50 [2]: 2.11
Ratio IC50 [3]: 2.92
IC50 [4]: > 100 µM
IC50 [5]: > 100 µM
IC50 [7]: 0.454 µM

COc1cccc(-n2nnc(-c3ccccc3NC(=O)Nc3cccc([N+](=O)[O-])c3)n2)c1
IC50 [4]: > 100 µM
IC50 [5]: > 100 µM

COc1cccc(-n2nnc(-c3ccccc3NC(=O)Nc3ccc(N=[N+]=[N-])cc3)n2)c1
Ratio IC50 [1]: 3.19
Ratio IC50 [2]: 3.21
Ratio IC50 [3]: 4.25
IC50 [4]: > 100 µM
IC50 [5]: > 100 µM
IC50 [6]: 0.685 µM

CCCc1ccc(NC(=O)c2ccccc2NC(=O)Nc2ccc(Br)cc2)cc1
Ratio IC50 [1]: 4.43
Ratio IC50 [2]: 9.87
Ratio IC50 [3]: 12.35
IC50 [4]: > 100 µM
IC50 [5]: > 100 µM

COc1cccc(-n2nnc(-c3ccccc3NC(=O)c3cccc([N+](=O)[O-])c3)n2)c1
Ratio IC50 [1]: 4.03
Ratio IC50 [2]: 6.47
Ratio IC50 [3]: 8.38
IC50 [4]: 25.4 µM
IC50 [5]: 19.9 µM
IC50 [7]: 1.39 µM

COc1ccc2c3c([nH]c2c1)[C@H](C=C(C)C)N1C(=O)[C@@H]2CCCN2C(=O)[C@@H]1C3 [FUMITREMORGIN]
Ratio IC50 [1]: 1.49
Ratio IC50 [2]: 2.1
Ratio IC50 [3]: 2.85
IC50 [6]: 0.321 µM
